From patent US8957064B2, “Fused pyrimidines” (Bayer Intellectual Property GmbH, priority 2009, dated 2015)

Assays:
[1] = biological target: His-tagged human recombinant kinase full-length Akt1 (Homo sapiens (Human), UniProt P31749); assay: Akt1 kinase assay (Akt1 TR-FRET assay, Biological Assay 1.0); format: biochemical; conditions: 10 μM ATP, 1 μM biotinylated peptide substrate, 60 min at 22° C.
From the text: Biological Assay 1.0: Akt1 Kinase Assay
Akt1 inhibitory activity of compounds of the present invention may be quantified employing the Akt1 TR-FRET assay as described in the following paragraphs. His-tagged human recombinant kinase full-length Akt1 expressed in insect cells was purchased form Invitrogen (part number PV 3599). As substrate for the kinase reaction the biotinylated peptide biotin-Ahx-KKLNRTLSFAEPG (C-terminus in amide form) was used which can be purchased e.g. from the company Biosynthan GmbH (Berlin-Buch, Germany).
(§1) For the assay 50 nl of a 100 fold concentrated solution of the test compound in DMSO was pipetted into a black low volume 384 well microtiter plate (Greiner Bio-One, Frickenhausen, Germany), 2 μl of a solution of Akt1 in assay buffer [50 mM TRIS/HCl pH 7.5, 5 mM MgCl2, 1 mM dithiothreitol, 0.02% (v/v) Triton X-100 (Sigma)] were added and the mixture was incubated for 15 min at 22° C. to allow prebinding of the test compounds to the enzyme before the start of the kinase reaction. Then the kinase reaction was started by the addition of 3 μl of a solution of adenosine-tri-phosphate (ATP, 16.7 μM=>final conc. in the 5 μl assay volume is 10 μM) and substrate (1.67 μM=>final conc. in the 5 μl assay volume is 1 μM) in assay buffer and the resulting mixture was incubated for a reaction time of 60 min at 22° C. The concentration of Akt1 in the assay was adjusted depending of the activity of the enzyme lot and was chosen appropriate to have the assay in the linear range, typical enzyme concentrations were in the range of about 0.05 ng/μl (final conc. in the 5 μl assay volume).
(§2) The reaction was stopped by the addition of 5 μl of a solution of HTRF detection reagents (200 nM streptavidine-XL665 [Cisbio] and 1.5 nM anti-phosho-Serine antibody [Millipore, cat. #35-001] and 0.75 nM LANCE Eu-W 1024 labeled anti-mouse IgG antibody [Perkin Elmer]) in an aqueous EDTA-solution (100 mM EDTA, 0.1% (w/v) bovine serum albumin in 50 mM HEPES/NaOH pH 7.5).
(§3) The resulting mixture was incubated 1 h at 22° C. to allow the binding of the biotinylated phosphorylated peptide to the streptavidine-XL665 and the antibodies. Subsequently the amount of phosphorylated substrate was evaluated by measurement of the resonance energy transfer from the anti-mouse-IgG-Eu-Chelate to the streptavidine-XL665. Therefore, the fluorescence emissions at 620 nm and 665 nm after excitation at 350 nm was measured in a HTRF reader, e.g. a Rubystar (BMG Labtechnologies, Offenburg, Germany) or a Viewlux (Perkin-Elmer). The ratio of the emissions at 665 nm and at […] was taken as the measure for the amount of phosphorylated substrate. The data were normalised (enzyme reaction without inhibitor=0% inhibition, all other assay components but no enzyme=100% inhibition).

[2] = biological target: His-tagged human recombinant kinase full-length Akt2 activated by PDK1 (Homo sapiens (Human), UniProt P31751); assay: Akt2 kinase assay (Akt2 TR-FRET assay, Biological Assay 2.0); format: biochemical; conditions: 10 μM ATP, 1 μM biotinylated peptide substrate, 60 min at 22° C.
From the text: Biological Assay 2.0: Akt2 Kinase Assay
Akt2 inhibitory activity of compounds of the present invention was quantified employing the Akt2 TR-FRET assay as described in the following paragraphs.
His-tagged human recombinant kinase full-length Akt2 expressed in insect cells and activated by PDK1 was purchased form Invitrogen (part number PV 3975). As substrate for the kinase reaction the biotinylated peptide biotin-Ahx-KKLNRTLSFAEPG (C-terminus in amide form) was used which can be purchased e.g. from the company Biosynthan GmbH (Berlin-Buch, Germany).
as §1, with “Akt2” for “Akt1”, “0.2” for “0.05”
as §2
as §3, with “TR-FRET” for “HTRF”

Chain of His-tagged human recombinant kinase full-length Akt2 activated by PDK1 (P31751 whole entry): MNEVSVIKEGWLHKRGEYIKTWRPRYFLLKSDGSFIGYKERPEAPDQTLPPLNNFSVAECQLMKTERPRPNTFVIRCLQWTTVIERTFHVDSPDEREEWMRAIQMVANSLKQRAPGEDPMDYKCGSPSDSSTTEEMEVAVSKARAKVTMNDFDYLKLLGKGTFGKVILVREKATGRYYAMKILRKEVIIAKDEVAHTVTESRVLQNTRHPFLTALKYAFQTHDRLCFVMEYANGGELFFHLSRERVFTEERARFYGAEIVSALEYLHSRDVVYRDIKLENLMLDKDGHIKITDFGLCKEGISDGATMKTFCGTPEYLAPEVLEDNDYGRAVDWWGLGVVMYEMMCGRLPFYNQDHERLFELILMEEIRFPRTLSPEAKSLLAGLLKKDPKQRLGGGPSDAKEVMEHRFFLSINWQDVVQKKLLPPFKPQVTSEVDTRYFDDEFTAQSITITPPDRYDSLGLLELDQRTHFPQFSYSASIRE
Chain of His-tagged human recombinant kinase full-length Akt1 (P31749 whole entry): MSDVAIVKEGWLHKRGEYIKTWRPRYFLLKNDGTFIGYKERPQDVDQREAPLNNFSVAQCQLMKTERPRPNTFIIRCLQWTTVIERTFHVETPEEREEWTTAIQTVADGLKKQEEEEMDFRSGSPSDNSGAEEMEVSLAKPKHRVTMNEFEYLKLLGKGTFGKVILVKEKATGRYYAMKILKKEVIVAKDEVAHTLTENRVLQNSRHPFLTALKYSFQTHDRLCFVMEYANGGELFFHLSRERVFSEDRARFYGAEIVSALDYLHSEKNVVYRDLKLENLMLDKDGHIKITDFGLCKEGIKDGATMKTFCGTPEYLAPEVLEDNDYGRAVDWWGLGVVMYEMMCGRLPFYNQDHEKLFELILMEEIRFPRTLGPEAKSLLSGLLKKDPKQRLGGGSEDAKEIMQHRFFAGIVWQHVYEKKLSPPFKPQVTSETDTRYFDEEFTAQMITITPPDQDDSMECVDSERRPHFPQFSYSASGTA

Row | SMILES | IC50 [1] [nM] | IC50 [2] [nM]
1 | CNc1c(-c2ccccc2)c(-c2ccc(CN3CC(c4n[nH]c(-c5ccccn5)n4)C3)cc2)nc2nc(-c3ccccn3)nn12 [Example 67.0] | 29 | 145
2 | COC(=O)c1cnn2cc(-c3c(F)cccc3F)c(-c3ccc(CN4CC(c5n[nH]c(-c6cccc(C)n6)n5)C4)cc3)nc12 [Example 27.0, 6-(2,6-difluorophenyl)-5-(4-{3-[5-(6-methylpyridine-2-yl)-1H-[1,2,4]triazole-3-yl]-azetidine-1-ylmethyl}-phenyl)-pyrazolo[1,5-a]pyrimidine-3-carboxylic acid methyl ester] | 12 | 115
3 | c1ccc(-c2cn3nc(C4CC4)nc3nc2-c2ccc(CN3CCC(c4cnc5ccccc5n4)CC3)cc2)cc1 [Example 40.0, 2-{1-[4-(2-cyclopropyl-6-phenyl-[1,2,4]triazolo[1,5-a]pyrimidin-5-yl)-benzyl]-piperidine-4-yl}-quinoxaline] | 247 | 273
4 | CCc1cnn2cc(-c3ccccc3)c(-c3ccc(CN4CC(c5n[nH]c(-c6cccc(C)n6)n5)C4)cc3)nc12 [Example 42.0, 3-ethyl-5-(4-{3-[5-(6-methyl-pyridin-2-yl)-1H-[1,2,4]triazol-3-yl]-azetidin-1-ylmethyl}-phenyl)-6-phenyl-pyrazolo[1,5-a]pyrimidine] | 5 | 19
5 | Cc1cccc(-c2nc(C3CN(Cc4ccc(-c5nc6nc(C)cn6c(NC(C)C)c5-c5ccccc5)cc4)C3)n[nH]2)n1 [Example 65.0, isopropyl-(2-methyl-6-phenyl-7-{4-{3-[5-(6-methylpyridine-2-yl)-1H-[1,2,4]triazole-3-yl)-azetidine-1-ylmethyl]-phenyl}-imidazo[1,2-a]pyrimidin-5-yl)-amine] | 33 | 36
6 | Fc1ccc(-c2cn3ccnc3nc2-c2ccc(CN3CCC(c4n[nH]c(-c5ccccn5)n4)CC3)cc2)cc1 [Example 52.1, 6-(4-fluorophenyl)-7-{4-[4-(5-pyridine-2-yl)-1H-[1,2,4]triazole-3-yl)-piperidine-1-ylmethyl)-phenyl}-imidazo[1,2-a]pyrimidine formiate] | 8 | 32

Other lines, results leading:

Row | IC50 [1] [nM] | IC50 [2] [nM] | SMILES
7 | 29 | 42 | Cc1cccc(-c2nc(C3CN(Cc4ccc(-c5nc6nc(C)nn6cc5-c5ccc(F)cc5F)cc4)C3)n[nH]2)n1 [Example 35.0, 6-(2,4-difluorophenyl)-2-methyl-5-(4-{3-[5-(6-methyl-pyridine-2-yl)-1H-[1,2,4]triazole-3-yl]-azetidine-1-ylmethyl}-phenyl)-[1,2,4]triazolo[1,5-a]pyrimidine]
8 | 22 | 97 | Cc1nc2nc(-c3ccc(CN4CCC(c5n[nH]c(-c6cc(Cl)ccn6)n5)CC4)cc3)c(-c3ccc(F)cc3F)cn2n1 [Example 50.0, 5-(4-{4-[5-(4-chloropyridine-2-yl)-1H-[1,2,4]triazole-3-yl]-piperidine-1-ylmethyl}-phenyl) 6-(2,4-difluorophenyl)-2-methyl-[1,2,4]triazolo[1,5-a]pyrimidine]
9 | 13 | 37 | Cc1cccc(-c2nc(C3CCN(Cc4ccc(-c5nc6nc(C)nn6cc5-c5cccc(F)c5)cc4)CC3)n[nH]2)n1 [Example 49.0, 6-(3-fluorophenyl)-2-methyl-5-(4-{4-[5-(6-methylpyridine-2-yl)-1H-[1,2,4]triazole-3-yl]-piperidine-1-ylmethyl}-phenyl)-[1,2,4]triazolo[1,5-a]pyrimidine]
10 | 62 | 108 | Cc1cccc(-c2nc(C3CCN(Cc4ccc(-c5nc6nc(C)nn6cc5-c5ccc(F)cc5F)cc4)CC3)n[nH]2)n1 [Example 50.1, 6-(2,4-difluorophenyl)-2-methyl-5-(4-{4-[5-(6-methylpyridine-2-yl)-1H-[1,2,4]triazole-3-yl]-piperidine-1-ylmethyl}-phenyl)-[1,2,4]triazolo[1,5-a]pyrimidine]
